US12583891B2, “Peptides and methods for the treatment of diabetes” (IMCYSE SA, priority 2017, dated 2026)

Experiments:
[1] = system: CD4+ T cell line from a T1D patient (T1D07); assay: Interferon gamma release by cytolytic CD4+ T cell line; format: cell-based, human; conditions: for IFN-gamma (pg/ml), Stimulus 1: T cell line primed with p17-001, after 12 stimulations, co-culture with autologous LCL B cells loaded (2 μM) with peptide, supernatant after 24 hours, multiplex assay
Experimental: Interferon gamma is an important marker to characterise cytolytic CD4+ T cells. A specific CD4+ T cell line was obtained by priming and stimulating naïve CD4+ T cells from a T1D patient (T1D07) with peptide p17-001. After 12 stimulations, cells were co-cultured with autologous LCL B cells loaded (2 μM) with peptide p17-001 or p17-003. After 24 hours, supernatants were collected and IFN-gamma was measured by multiplex assay (see table 1 below).

[2] = Reductase (reducing) activity of peptides, fluorescent FITC-peptide assay; format: biochemical; conditions: fluorescent FITC-peptide disulfide reduction; dithiothreitol control = 100%
Experimental: The reductase activity of the peptides is determined using a fluorescent described in Tomazzolli et al. (2006) Anal. Biochem. 350, 105-112. Two peptides with a FITC label become self-quenching when they covalently attached to each other via a disulfide bridge. Upon reduction by a peptide in accordance with the present invention, the reduced individual peptides become fluorescent again.
Control experiments were performed with dithiothreitol (100% reducing activity) and water (100% reducing activity).

[3] = system: CD4+ T cell lines from T1D patients; assay: FasL release by cytolytic CD4+ T cell lines; format: cell-based, human; conditions: for FasL expression (pg/ml) Stimulation 1: day 11 of stimulation 1; for FasL expression (pg/ml) Stimulation 1 / FasL expression (pg/ml) Stimulation 2 / FasL expression (pg/ml) Stimulation 3 / FasL expression (pg/ml) Stimulation 4: restimulation with corresponding peptide presented by autologous B cells; for FasL expression (pg/ml) Stimulation 1 / FasL expression (pg/ml) Stimulation 2: supernatant after 24 h; for FasL expression (pg/ml) Stimulation 2: day 11 of stimulation 2; for FasL expression (pg/ml) Stimulation 3: day 11 of stimulation 3; for FasL expression (pg/ml) Stimulation 3 / FasL expression (pg/ml) Stimulation 4: supernatant after 72 h; for FasL expression (pg/ml) Stimulation 4: day 11 of stimulation 4
Experimental: The T cell line originally generated with p17 001 as described in example 3 above was divided and stimulated with peptide P17 003 or P17 001 over 4 successive in vitro stimulations using autologous LCL B cell line as APC. At day 11 of every stimulation (total of 4), cells were tested for FasL after restimulation with their corresponding peptide presented by autologous B cells. Supernatants were collected after 24 h (stimulation 1 and 2) or 72 h (stimulation 3 and 4) of co-culture.

[4] = system: PBMCs from T1D-patient T1D018 (IL5 positive fraction); assay: Cytokine release in cell lines generated from T1D-patient PBMCs (MACSplex Cytokine 12 kit); format: cell-based, human; conditions: supernatant after 24 h, end of stimulation 10; FIG. 2
Experimental: (§1) PBMCs from T1D-patient T1D018 were stimulated in vitro either with P17001 peptide or P17003 peptide. These two populations specifically release […] after antigenic activation. After 6 stimulation cycles with the peptides, both cell lines were enriched for IL-5 producing cells with cytokine capture beads. The two populations of Interleukin-5 negative cells were used as controls.
(§2) These four populations are then tested for specific release of sFasL, Granzyme B and cytokines after stimulation with their cognate peptide (P17-001 or P17-003). Supernatants are collected after 24 h of culture and sFasL and Granzyme B are measured by ELISA (sFasL: Diaclone 851730010; Granzyme B: eBioscience BMS2027) and cytokines by MACSplex Cytokine 12 kit (Miltenyi, 130-099-169).
To determine if the in vitro cultured cells from T1D donors are specific for peptide P17001 or P17003, the release of cytokines, a hallmark for cell activation upon peptide stimulation, was investigated using MACSplex Cytokine 12 kit (Miltenyi, 130-099-169). Supernatant was collected after 24 h from the culture of T1D donor PBMCs in the absence or presence of the peptide. […] Specificity test was performed at the end of stimulation 10 (resting day). The result is presented as the difference in concentration of each cytokine in the condition without and with peptide.

[5] = system: PBMCs from T1D-patient T1D018 (IL5 positive cells); assay: sFasL release in cell lines generated from T1D-patient PBMCs; format: cell-based, human; conditions: IL5 positive cells after 6 stimulation cycles, restimulated 24 h with cognate peptide; ELISA; p<0,0001
Experimental: FIG. 1: Release of sFasL in cell lines generated with p17-003 or p17-001. Cells specific for p17-003 or p17-001 (IL5 positive cells; black histograms) were restimulated for 24 h with antigen presenting cells loaded with peptides p17-003 or p17-001, depending of the peptide used for their generation, and supernatant collected after 24 h of co-culture. IL-5 negative cells are for control PBMC populations (open histograms). Results represent mean+/−SD of sFasL concentration corrected per cell number.
as §1, §2

Molecule | IFN-gamma (pg/ml), Stimulus 1 [1] | reducing activity [2] | FasL expression (pg/ml) Stimulation 1 [3] | FasL expression (pg/ml) Stimulation 2 [3] | FasL expression (pg/ml) Stimulation 3 [3] | FasL expression (pg/ml) Stimulation 4 [3] | IFN-gamma produced after stimulation with p17 003 compared to p17 001 ([1]; ratio of Table 1 values) | FasL (sFasL) expression compared to P17-001 ([3]; each of the four stimulations) | eliciting peptide specific cells (cytokine release upon peptide stimulation) compared with P17001 [4] | sFasL release compared with cells generated by peptide p17-001 [5]
HCPYC VR SLQPLALEGSLQKRG (HCPYCVRSLQPLALEGSLQKRG; peptide with redox motif and insulin T cell epitope) [P17 001, reference compound] | 11.1 ± 0.8 pg/mL | 68% | 1335 ± 23.1 pg/mL | 1144 ± 15.4 pg/mL | 1227 ± 49.1 pg/mL | 1008 ± 102 pg/mL |  |  |  | 
O[C@H](CS)[C@H](O)CS (racemic) [dithiothreitol] |  | 100% |  |  |  |  |  |  |  | 
HCPYCSLQPLALEGSLQKRG (peptide with redox motif and insulin T cell epitope) [P17 003] | 29.7 ± 14.1 pg/mL | 65% | 1795 ± 42.4 pg/mL | 1812 ± 34.7 pg/mL | 2063 ± 166 pg/mL | 1526 ± 102 pg/mL | about 3 times | significantly higher | more potent | 4.5 fold
